This is an account of results in paper PMC3433420 (PLoS ONE, 2012).

For experiment [1], the target named is T1, PLCG1-C SH2 domain (Homo sapiens, UniProt P19174).
T1 construct: The 6X His-tagged SH2 domain proteins used in the assay, PLCG1-C, SHC4, VAV2; thioredoxin; made in house; host or cells: E. coli BL21(DE3)pLysS
T1 sequence (P19174 668-756 limits assumed): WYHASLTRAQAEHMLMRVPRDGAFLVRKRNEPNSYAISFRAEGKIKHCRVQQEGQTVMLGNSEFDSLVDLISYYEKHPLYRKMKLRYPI
The experiment can be described thus: biochemical. The experiment is classed as binding. The settings on record: FP, PLCG1-C; mean; NA = no interaction detected.

The target of experiment [2] is T1, PLCG1-C SH2 domain. Description: Surface plasmon resonance (Biacore 3000). The experiment is classed as binding. The settings on record: SPR, NA = no interaction detected. As to the method:
(§1) All SPR experiments were performed using Biacore 3000 (GE HealthCare, Piscataway, NJ) instrumentation. 6X His-tagged SH2 domain proteins were immobilized on a nitriloacetic acid (NTA) sensor chip (GE HealthCare, Piscataway, NJ) charged with Ni^2+ ions. Dye-free ErbB family peptides were applied to the sensor chip in a single flow cell in solution phase (while the other flow cell was used as a reference control) and binding events were measured under equilibrium conditions. FP false positive [drawing 7] (FPR), false discovery [drawing 8] (FDR), and false negative [drawing 9] (FNR) rates were calculated by defining true positives (TP) as interactions detected by both FP and SPR, true negatives (TN) as interactions detected by neither FP nor SPR; false positives as interactions identified by FP but not validated by SPR; and false negatives (FN) as interactions missed by FP but detected by SPR. Additional details for all methods are provided in the Supplementary Methods.
(§2) A randomly selected set of 12 recombinant SH2 domain proteins and unlabeled (rhodamine dye free) peptides (9 ErbB, 2 GAB1, 2 KIT, 2 MET) were generated for the surface plasmon resonance (SPR) validation study. The 6X His-tagged SH2 domain proteins used in the assay, PLCG1-C, SHC4, VAV2, TNS3, PIK3R3-C, SYK-C, PIK3R1-N, SUPT6H, CRKL, TEC, SHB, and SHC3 were produced and purified as previously described (see “SH2 and PTB domain proteins” section and Jones et al., 2006). Fresh protein stocks were generated so as to avoid bias incurred from proteins previously used in the FP assays. 13-mer peptides corresponding to ErbB1 pY801, ErbB1 pY900, ErbB1 pY978, ErbB1 pY1069, ErbB2 pY685, ErbB pY803, ErbB3 pY912, ErbB4 pY833, ErbB4 pY906, GAB1 pY183, GAB1 pY472, KIT pY570, KIT pY936, MET pY1093 and MET pY1313, were synthesized successfully for the assay using previously described approaches (see “FP competitor peptide synthesis” section). For SPR detection via the Biacore 3000 (GE HealthCare, Piscataway, NJ), His-tagged SH2 domains were immobilized on Biacore NTA sensor chips (GE HealthCare, Piscataway, NJ) pre-charged with Ni^2+ ions in one flow cell while the second served as a negative control reference cell. Peptides were introduced in solution phase to both cells and relative response units (RUs) were recorded from output sensograms. Nine concentrations of peptide and a buffer control, in duplicate, were used to determine KDs using the equilibrium method (best-fit simultaneous modeling for peptide association and disassociation curves).

Experiment [3] has as its target T2, PIK3R3-C SH2 domain (Homo sapiens, UniProt Q92569).
T2 construct: thioredoxin; made in house; host or cells: E. coli BL21(DE3)pLysS
The experiment can be described thus: Surface plasmon resonance (Biacore 3000). The experiment is classed as binding. The settings on record: SPR, NA = no interaction detected. As to the method:
as §1, §2
For orientation: Surface plasmon resonance follows binding to a sensor surface in real time, without labels.

Experiment [4] concerns the target T2, PIK3R3-C SH2 domain. Description: biochemical. The experiment is classed as binding. The settings on record: FP, PIK3R3-C; mean; NA = no interaction detected.
Experiment [5] addresses T3, PLCG1-NC tandem SH2 domains (Homo sapiens, UniProt P19174).
T3 construct: the tandem protein was included in our analysis with all internal amino acids linking the domains; 6X His; thioredoxin; made in house; host or cells: E. coli BL21(DE3)pLysS
T3 sequence (P19174 550-756 limits assumed): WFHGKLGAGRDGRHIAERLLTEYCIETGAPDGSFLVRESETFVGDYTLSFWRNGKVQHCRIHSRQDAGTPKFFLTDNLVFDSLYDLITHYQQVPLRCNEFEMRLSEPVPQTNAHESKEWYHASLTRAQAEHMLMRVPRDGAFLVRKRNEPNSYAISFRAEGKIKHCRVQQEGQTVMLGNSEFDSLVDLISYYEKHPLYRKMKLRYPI
The experiment can be described thus: FP saturation binding assay. The settings on record: Protein PLCG1-NC; FP saturation binding, high-confidence ErbB interactions; mean over replicate hits.

The target in experiment [6] is T4, RASA1-N SH2 domain (Homo sapiens, UniProt P20936).
T4 sequence (P20936 181-272 limits assumed): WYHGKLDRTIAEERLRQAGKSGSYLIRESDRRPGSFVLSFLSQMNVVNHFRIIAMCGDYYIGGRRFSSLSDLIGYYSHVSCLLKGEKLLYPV
The experiment can be described thus: FP saturation binding assay.

The target in another experiment is T5, SHC1-PTB domain (Homo sapiens, UniProt P29353).
T5 sequence (P29353 156-339 limits assumed): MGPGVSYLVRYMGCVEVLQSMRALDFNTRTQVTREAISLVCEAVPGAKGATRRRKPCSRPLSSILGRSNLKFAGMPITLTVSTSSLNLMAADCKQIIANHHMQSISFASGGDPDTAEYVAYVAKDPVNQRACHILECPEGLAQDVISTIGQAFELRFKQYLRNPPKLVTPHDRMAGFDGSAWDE
Description: FP saturation binding assay.

Another experiment concerns the target T6, YES1 SH2 domain (Homo sapiens, UniProt P07947).
T6 construct: 6X His; thioredoxin; made in house; host or cells: BL21(DE3)pLysS E. coli
The experiment can be described thus: FP saturation binding assay. The settings on record: Protein YES1; FP saturation binding, high-confidence ErbB interactions; mean over replicate hits. An outline of the steps: (§3)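 Rhodamine-labeled peptides (10 nM final) were titrated with 12 SH2 domain concentrations (0.002–10 µM) in 20 mM HEPES, 100 mM KCl, 0.1% Tween-20, 5 mM DTT, pH 7.8. After 20 min at room temperature in the dark, FP (ex 530/em 555 nm) was read. KDs came from nonlinear least-squares fits.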

Experiment [7] concerns the target PIK3R2-NC tandem SH2 domains (Homo sapiens, UniProt O00459). The experiment can be described thus: FP saturation binding assay.
Experiment [8] has as its target T4, RASA1-N SH2 domain. The experiment can be described thus: FP competition assay. The arrangement: 6X His; thioredoxin; made in house; host or cells: E. coli BL21(DE3)pLysS. It counts as binding. The settings on record: RASA1N; labeled peptide ErbB2pY1196; Fig. 3 graph A; read-out: Ki (obs). As to the method:
Unlabeled phosphopeptides were synthesized with some modifications to the previously described protocol. […] Unlabeled competitor peptides were prepared at 11 serial 1∶3 dilutions in assay buffer; one control with no unlabeled competitor peptides was also included with each experimental set. The fluorescent peptide, protein, and unlabeled peptide mixtures were allowed to incubate for a minimum of 20 minutes in 384-well plates and polarization signals were measured using the Analyst GT multimode reader as previously described above. Inhibition curves were constructed by four-parameter log-logistic regression using the “drc” package in R with the parameters for maximum and minimum fluorescence fixed according to Z’ factor positive and negative control values. IC50 values were estimated from these fits under a one-site competition binding model and Ki calculated according to the equation developed by.

A further experiment has as its target GRB7 SH2 domain (Homo sapiens, UniProt Q14451). Description: FP saturation binding assay. The settings on record: KD for GRB7, FP saturation assay.
The target of a further experiment is T7, SRC SH2 domain (Homo sapiens, UniProt P12931).
T7 construct: between the c-Src SH2 domain and ErbB1 in our FP assay; 6X His; thioredoxin; made in house; host or cells: E. coli BL21(DE3)pLysS
The experiment can be described thus: FP saturation binding assay. The settings on record: protein SRC; FP, high-confidence ErbB interactions; mean of replicate hits. An outline of the steps:
as §3

Residues, ends and D or L forms follow the SMILES beside them. Bounds are passed on as bounds.

T7 sequence (P12931 151-248 limits assumed): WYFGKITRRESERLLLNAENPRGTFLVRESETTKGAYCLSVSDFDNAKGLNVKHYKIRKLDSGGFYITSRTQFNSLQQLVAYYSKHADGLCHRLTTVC
Sequence of PIK3R2-NC tandem SH2 domains (O00459 330-716 limits assumed): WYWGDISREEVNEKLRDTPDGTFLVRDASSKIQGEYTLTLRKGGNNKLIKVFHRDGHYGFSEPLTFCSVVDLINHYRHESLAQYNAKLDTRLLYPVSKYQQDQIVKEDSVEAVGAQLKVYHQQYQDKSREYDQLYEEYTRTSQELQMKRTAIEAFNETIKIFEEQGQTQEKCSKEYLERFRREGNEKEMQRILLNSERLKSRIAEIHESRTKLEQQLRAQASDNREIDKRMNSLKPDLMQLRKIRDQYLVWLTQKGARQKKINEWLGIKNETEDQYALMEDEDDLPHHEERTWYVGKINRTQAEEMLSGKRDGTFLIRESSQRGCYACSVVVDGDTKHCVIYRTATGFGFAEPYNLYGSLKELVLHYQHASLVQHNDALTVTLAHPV
T6 sequence (P07947 158-255 limits assumed): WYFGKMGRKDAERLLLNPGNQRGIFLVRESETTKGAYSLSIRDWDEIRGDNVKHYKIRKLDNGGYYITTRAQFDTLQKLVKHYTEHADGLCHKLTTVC
Sequence of GRB7 SH2 domain (Q14451 431-527 limits assumed): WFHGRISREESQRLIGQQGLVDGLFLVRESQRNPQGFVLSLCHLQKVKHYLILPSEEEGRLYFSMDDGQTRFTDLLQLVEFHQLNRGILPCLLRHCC

With `CC(C)C[C@H](NC(=O)[C@H](CCC(=O)O)NC(=O)[C@H](Cc1c[nH]c2ccccc12)NC(=O)[C@@H](NC(=O)[C@@H](NC(=O)[C@@H](NC(=O)CNC(=O)[C@H](Cc1ccc(OP(=O)(O)O)cc1)NC(=O)[C@H](CO)NC(=O)[C@H](Cc1c[nH]c2ccccc12)NC(=O)[C@@H](NC(=O)[C@@H](N)CC(=O)O)C(C)C)C(C)C)[C@@H](C)O)C(C)C)C(=O)N[C@@H](CC(=O)O)C(=O)O` [ErbB1 900], the Kd on PLCG1-C SH2 domain [1] is 15.5 µM; on PLCG1-C SH2 domain [2] it was 10.9 µM; on PIK3R3-C SH2 domain [3] it was 1.47 µM; on PIK3R3-C SH2 domain [4] it was 5.83 µM.

Take `CC(C)C[C@H](NC(=O)[C@H](CC(N)=O)NC(=O)[C@H](CC(=O)O)NC(=O)[C@@H](N)Cc1ccccc1)C(=O)N[C@@H](Cc1ccc(OP(=O)(O)O)cc1)C(=O)N[C@@H](Cc1ccc(O)cc1)C(=O)N[C@@H](Cc1c[nH]c2ccccc12)C(=O)N[C@@H](CC(=O)O)C(=O)N[C@@H](CCC(N)=O)C(=O)N[C@@H](CC(=O)O)C(=O)N1CCC[C@H]1C(=O)N1CCC[C@H]1C(=O)N[C@@H](CCC(=O)O)C(=O)N[C@@H](CC(=O)O)C(=O)O` [ErbB2 1221 13-mer] (HELM PEPTIDE1{F.D.N.L.[O=C([C@H](Cc1ccc(OP(=O)(O)O)cc1)N[*:1])[*:2]].Y.W.D.Q.D.P.P.E.D}$$$$V2.0): the Kd is 2.27 µM in experiment [5]; 1.12 µM on RASA1-N SH2 domain [6]; 1.98 µM on SHC1-PTB domain; 2.41 µM on YES1 SH2 domain; 11.2 µM in experiment [7].

Consider `CSCC[C@H](NC(=O)[C@H](Cc1ccc(O)cc1)NC(=O)[C@H](CCC(=O)O)NC(=O)[C@H](Cc1ccc(OP(=O)(O)O)cc1)NC(=O)[C@H](CC(=O)O)NC(=O)[C@H](CCC(=O)O)NC(=O)[C@H](CC(=O)O)NC(=O)[C@@H]1CCCN1)C(=O)N[C@@H](CC(N)=O)C(=O)N[C@@H](CCCNC(=N)N)C(=O)N[C@@H](CCC(N)=O)C(=O)N[C@@H](CCCNC(=N)N)C(=O)N[C@@H](CC(=O)O)C(=O)O` [ErbB3 pY1260] (HELM PEPTIDE1{P.D.E.D.[O=C([C@H](Cc1ccc(OP(=O)(O)O)cc1)N[*:1])[*:2]].E.Y.M.N.R.Q.R.D}$$$$V2.0), for which the Ki on RASA1-N SH2 domain [6] (read-out: Ki ( exp FP), competing peptide, RASA1N, Ki expected from FP, NI = no interaction) is greater than 20 µM; at RASA1-N SH2 domain [8], 38.8 µM. This compound also registered a Kd on GRB7 SH2 domain of no more than 0.1 µM.

In turn, `CC[C@H](C)[C@H](NC(=O)[C@@H](N)CCC(=O)O)C(=O)NCC(=O)N[C@@H](Cc1c[nH]cn1)C(=O)N[C@@H](CO)C(=O)N1CCC[C@H]1C(=O)N1CCC[C@H]1C(=O)N1CCC[C@H]1C(=O)N[C@@H](C)C(=O)N[C@@H](Cc1ccc(OP(=O)(O)O)cc1)C(=O)N[C@H](C(=O)N1CCC[C@H]1C(=O)N[C@@H](CCSC)C(=O)N[C@@H](CO)C(=O)NCC(=O)N[C@@H](CC(N)=O)C(=O)N[C@@H](CCC(N)=O)C(=O)N[C@@H](CC(=O)O)C(=O)O)[C@@H](C)O` [ErbB4 1056 18-mer] (HELM PEPTIDE1{E.I.G.H.S.P.P.P.A.[O=C([C@H](Cc1ccc(OP(=O)(O)O)cc1)N[*:1])[*:2]].T.P.M.S.G.N.Q.D}$$$$V2.0) came in with a Kd at SRC SH2 domain of 9.47 µM.

In general, Kd refers to the equilibrium constant for the complex coming apart. The low end stands for tighter binding, the high end for weaker binding. For orientation: Ki means a measure of affinity in units of concentration, obtained from inhibition or displacement.
